Results from publication PMC6539144, “Discovery of Novel Potential Reversible Peptidyl Arginine Deiminase Inhibitor” (International Journal of Molecular Sciences, 2019).
Like-named read-outs stand apart in the source and are kept apart here.

Experiments:
PAD4 = conditions: cited from earlier work
GST-PAD4 [1] = molecular target: T1, GST-PAD4 (Homo sapiens, UniProt Q9UM07); experiment: GST-PAD4 inhibition assay (Dansyl-Gly-Arg citrullination, HPLC); type: biochemical; conditions: for Inhibition of GST-PAD4, initial screening: 0–250 µM inhibitor, 0.25 mM Dansyl-Gly-Arg; for Ki / IC50: GST-PAD4 preincubated 30 min with compound, 0.5 mM DTT, 10 mM CaCl2, 0.25 mM Dansyl-Gly-Arg, mean ± S.D., n = 3; for Ki: assuming competitive reversible mechanism; for IC50: linear regression
T1 construct: made in house
T1 sequence (Q9UM07 whole entry): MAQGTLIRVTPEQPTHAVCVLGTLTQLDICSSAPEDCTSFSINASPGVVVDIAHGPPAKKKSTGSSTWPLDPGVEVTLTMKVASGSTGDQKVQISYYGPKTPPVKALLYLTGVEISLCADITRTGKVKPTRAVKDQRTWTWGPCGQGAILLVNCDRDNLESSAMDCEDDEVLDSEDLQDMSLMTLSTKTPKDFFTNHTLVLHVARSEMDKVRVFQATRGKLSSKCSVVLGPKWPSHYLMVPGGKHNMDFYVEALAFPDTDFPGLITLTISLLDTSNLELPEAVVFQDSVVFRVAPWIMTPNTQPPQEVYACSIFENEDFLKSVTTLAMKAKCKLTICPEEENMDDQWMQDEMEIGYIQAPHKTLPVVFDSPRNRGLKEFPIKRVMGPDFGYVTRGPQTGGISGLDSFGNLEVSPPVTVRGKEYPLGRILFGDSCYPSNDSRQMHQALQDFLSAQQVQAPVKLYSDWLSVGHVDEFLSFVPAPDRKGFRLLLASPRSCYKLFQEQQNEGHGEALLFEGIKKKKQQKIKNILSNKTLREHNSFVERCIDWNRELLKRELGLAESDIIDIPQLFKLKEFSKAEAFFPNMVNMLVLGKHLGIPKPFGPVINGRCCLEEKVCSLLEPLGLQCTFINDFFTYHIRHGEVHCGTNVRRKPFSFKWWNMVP
Description: 1 mU of GST-PAD4 was used in the experiments. To optimize the concentration of the reducing agent, experiments were done using different concentrations of DTT in the assay buffer ranging from 0 to 10 mM and the final concentration for the presented results was 0.5 mM DTT. Following pre-incubation of enzyme in the assay buffer, the reaction was initiated by the addition of 0.25 mM Dansyl-Gly-Arg. The reaction was stopped after 1h (as described above), the sample was separated by HPLC and the relative activity of PAD in each sample was determined by measuring the peak area of the citrullinated Dansyl-Gly-Arg.
The equilibrium inhibition constant (Ki) and IC50 were calculated from the fit of observed PAD activity against the respective compound concentration. Data was analyzed by the built-in Morrisson equation for tight-binding inhibition and represent the mean ± SD from at least three different determinations. IC50 values were determined by the linear regression to the initial fragment of the inhibition curve and are representative of inhibitor concentration required for the 50% reduction in the product release during the reaction.

HisTag-PPAD = molecular target: T2, HisTag-PPAD (Porphyromonas gingivalis, UniProt Q9RQJ2); experiment: HisTag-PPAD inhibition assay (Dansyl-Gly-Arg citrullination, HPLC); type: biochemical; conditions: 0–250 µM inhibitor, 0.25 mM Dansyl-Gly-Arg
T2 construct: made in house
T2 sequence (Q9RQJ2 44-556): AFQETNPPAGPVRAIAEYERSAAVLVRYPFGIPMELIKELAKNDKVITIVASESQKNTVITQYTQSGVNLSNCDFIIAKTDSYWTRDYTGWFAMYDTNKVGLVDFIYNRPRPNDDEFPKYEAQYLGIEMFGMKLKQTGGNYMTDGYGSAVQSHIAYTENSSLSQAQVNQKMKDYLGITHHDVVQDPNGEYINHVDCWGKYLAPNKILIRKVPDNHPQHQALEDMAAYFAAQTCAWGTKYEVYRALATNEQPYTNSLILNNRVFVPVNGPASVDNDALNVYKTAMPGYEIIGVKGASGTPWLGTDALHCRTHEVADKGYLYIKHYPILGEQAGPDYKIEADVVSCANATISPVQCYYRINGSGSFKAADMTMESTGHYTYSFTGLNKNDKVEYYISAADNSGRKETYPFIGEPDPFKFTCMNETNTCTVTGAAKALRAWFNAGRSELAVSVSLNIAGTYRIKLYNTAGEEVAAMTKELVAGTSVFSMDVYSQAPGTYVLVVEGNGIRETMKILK

human neutrophils [2] = experiment: Histone H3 citrullination in neutrophils stimulated with calcium ionophore; type: cell-based; conditions: 50 µM, 4 μM calcium ionophore stimulation
Description: Neutrophils were isolated from human peripheral blood collected in acid citrate dextrose (ACD-A) by first spinning blood on Lymphoprep^TM (Axis Shield, Oslo, Norway), followed by dextran sedimentation using 3% dextran density gradient and hypotonic lysis of erythrocytes. Neutrophil purity was assessed to be >90% by flow cytometry. Cells were resuspended at 2 × 10^6 cells/mL in RPMI-1640 with HEPES (Thermo Fisher Scientific, Waltham, MA, USA) supplemented with 2 mM CaCl2 and pre-treated for 30 min with DMSO alone, 50 μM of compounds 1 to 6 or with either 50 or 200 μM of Cl-amidine. Cells were then stimulated with 4 μM calcium ionophore A23187 (Sigma-Aldrich, St. Louis, MO, USA) or left unstimulated as controls for 15 min at 37 °C, 5% CO2. Following stimulation, acid extraction of histones was performed according to Shechter et al.. […] The presence of citrullination in cellular histones was analyzed by Western blot.
The protein concentration in each sample was measured (A280nm) and normalized post-extraction. […] The signal was recorded with ChemiDoc image analyzer (Bio-Rad Laboratories, Hercules, CA, USA).

GST-PAD4 [3] = molecular target: T1, GST-PAD4; experiment: GST-PAD4 inhibitory activity in the presence of serum and synovial fluid; type: biochemical; conditions: for Inhibitory potential on GST-PAD4 in the presence of serum / Inhibitory activity on GST-PAD4 in the presence of RA synovial fluid: 50 µM compound (Cl-amidine 50 and 200 µM); for Inhibitory potential on GST-PAD4 in the presence of serum: serum diluted 1:3, compared to in vitro conditions; for Inhibitory activity on GST-PAD4 in the presence of RA synovial fluid: synovial fluid diluted 1:3, 1 mM Dansyl-Gly-Arg
Description: A total of 50 μM of compounds 1 to 6 were pre-incubated with 1 mU of GST-PAD4 for 30 min at 37 °C with serum from healthy blood donors, serum or synovial fluid from patients with RA, serially diluted from 1:1.5 to 1:30 in the assay buffer (100 mM Tris pH 7.5, 10 mM CaCl2). The reaction was then initiated by the addition of 1 mM Dansyl-Gly-Arg and stopped after 1h as described above. The assay included a negative and positive control: a DMSO (no compound) control and a known irreversible compound (Cl-amidine) at 50 and 200 μM. Samples were separated by HPLC.

human neutrophils [4] = experiment: NET assay: extracellular DNA release (PicoGreen) from PMA-stimulated neutrophils; type: cell-based; conditions: 30 µM
Description: Granulocyte-enriched fractions were harvested using a lymphocyte separation medium density gradient (PAN Biotech, Aidenbach, Germany). Neutrophils and erythrocytes were separated after 30 min of incubation with 1% polyvinyl alcohol (POCH, Gliwice, Poland). Neutrophils were collected from the upper layer and after centrifugation (280× g, 10 min), the residual erythrocytes were removed by lysis in water. Cells were then resuspended in serum-free DMEM without phenol red (Gibco, Waltham, MA, USA). To measure the extracellular DNA release, neutrophils were seeded at 2 × 10^6/well in 0.01 mg/mL poly-L-lysine (Sigma-Aldrich) coated 24-well plates and centrifuged (200× g, 5 min). Neutrophils were treated for 1h with DMSO alone, or with either 30 μM or 100 μM of compound 4 or Cl-amidine. Cells were then stimulated with 25 nM PMA (phorbol 12-myristate 13-acetate) or left unstimulated as controls for 3 h at 37 °C, 5% CO2. Following stimulation, the cell medium was collected and the extracellular DNA was quantified using the Quant-iT^TM PicoGreen® dsDNA Reagent (QPG; Invitrogen, Carlsbad, CA, USA). The 1:200 dilution of QPG in TE buffer (10 mM Tris, 1 mM EDTA, pH 7.5) and 90 μL of TE buffer was added to 10 μL of the supernatant containing the extracellular DNA and fluorescence was measured with an excitation wavelength 480 nm and emission wavelength 520 nm.

[5] = tested on: collagen-induced arthritis; conditions: cited from earlier work
GST-PAD4 [6] = molecular target: T1, GST-PAD4; experiment: Histone H3 citrullination assay (purified calf thymus histone H3, western blot); type: biochemical; conditions: 50 µM, purified calf thymus histone H3, 0.5 mM DTT
Description: A total of 50 μM of compounds 1 to 6 were pre-incubated with 1 mU of GST-PAD4 for 30 min at 37 °C in the assay buffer (100 mM Tris pH 7.5, 10 mM CaCl2, 0.5 mM DTT). After that, 5 μg of purified calf thymus histone H3 was added to the reaction mixture and incubated further for 60 min at 37 °C. Three controls were performed in the assay: a DMSO (no compound) control and a known irreversible compound (Cl-amidine) at 50 and 200 μM. The citrullination was assessed by western blot using antibodies specific to citrullinated histone H3.
The protein concentration in each sample was measured (A280nm) and normalized post-extraction. Next, histone proteins were separated in precast Novex^TM 16% Tris-Glycine 1 mm minigels (Invitrogen, Carlsbad, CA, USA). After electrophoresis, proteins were transferred into nitrocellulose membranes (0.2 μm) at 4 °C (transfer buffer: 10 mM CAPS, 20% methanol, pH 11). Membranes were blocked for 1 h at room temperature with 5% milk in TBST (1× Tris Buffered Saline, pH 8.0, with 0.1% Tween 20) and then incubated overnight at 4 °C with rabbit polyclonal anti-H3Cit antibody (Abcam, ab5103, Cambridge, UK) at a 1:1,000 dilution in the blocking solution. […] The signal was recorded with ChemiDoc image analyzer (Bio-Rad Laboratories, Hercules, CA, USA).

colitis = tested on: colitis; set-up: method as in PMID 21415415; conditions: cited from earlier work
human neutrophils [7] = experiment: NETs imaging assay (DNA and histone H2A immunostaining); type: cell-based; conditions: 100 µM, PMA stimulation
Description: For the NETs imaging assays, neutrophils were allowed to adhere to poly-L-lysine coated coverslips (5 × 10^5 cells/coverslip) for 30 min at 37 °C, 5% CO2. Neutrophils were then treated for 1 h with DMSO alone, or 100 μM of compound 4 or Cl-amidine. Neutrophils were then stimulated with 25 nM PMA or left unstimulated as controls for 3 h at 37 °C, 5% CO2. Neutrophils were fixed with 3.7% formaldehyde for 10 min, washed three times with PBS and blocked (5% FBS, 1% BSA, 0.05% Tween, 2 mM EDTA in PBS) for 1 h. Cells were washed and treated with 0.1% saponin (Sigma-Aldrich) in PBS for 30 min. Cells were stained first with rabbit polyclonal anti-histone H2A antibody (Abcam), and then with allophycocyanin (APC) F(ab’)2 goat anti-rabbit antibody (Jackson ImmunoResearch Lab Inc., Ely, UK) in the presence of 3% BSA in 0.1% saponin. Cells were counterstained with 1 µg/mL Hoechst 33258 dye (Invitrogen). Images were captured with a fluorescence microscope (Nikon Eclips Ti, Nikon, Konan, Tokyo).

[8] = PAD4-specific reversible inhibitors, read-out: IC50
[9] = 50 µM compound, serum diluted 1:3, 1 mM Dansyl-Gly-Arg

In the case of `Cc1ccc(/C=c2/sc3ncnn3c2=O)o1` [Compound 2], the “Inhibition of GST-PAD4, initial screening” value (GST-PAD4 [1]) is reported as “partially inhibited”, the Ki (GST-PAD4 [1]) is reported as 940 ± 310 nM and the IC50 (GST-PAD4 [1]) is reported as 1400 ± 260 nM. For the same compound, the “Inhibition of HisTag-PPAD” value (HisTag-PPAD) was “no effect”, the “Inhibition of histone H3 citrullination in neutrophils (western blot)” value (human neutrophils [2]) was “ineffective” and the “Inhibitory potential on GST-PAD4 in the presence of serum” value (“Inhibitory potential on GST-PAD4” for short) (GST-PAD4 [3]) was “retained their inhibitory potential”.
For `N=C(CCl)NCCC[C@H](NC(=O)c1ccccc1)C(N)=O` [Cl-amidine, N-α-Benzoyl-N5-(2-Chloro-1-Iminoethyl)-l-Ornithine Amide, reference compound], the “Inhibition of DNA release (NETs) from PMA-stimulated neutrophils” value (human neutrophils [4]) is given as “inhibited this effect”, the “Severity of murine collagen-induced arthritis” value [5] is given as “decrease in the severity” and the “Inhibition of GST-PAD4-mediated citrullination of histone H3 (western blot)” value (GST-PAD4 [6]) is given as “not effective”. The IC50 (PAD4; read-out: IC50) was […], the “Clinical signs and symptoms of colitis” value (colitis) was “reduce clinical signs and symptoms of colitis” and the “Inhibitory potential on GST-PAD4” value (GST-PAD4 [3]) was “partially losing its inhibitory potential”. For the same compound, the “Inhibitory activity on GST-PAD4 in the presence of RA synovial fluid” value (GST-PAD4 [3]) was “ineffective” and the “NET formation visualized by DNA and histone H2A immunostaining” value (human neutrophils [7]) was “blocked the NET formation”.
For `CCn1c(-c2nc3cc(C(=O)N4CCCC(N)C4)cc(OC)c3n2C)cc2cccnc21` (stereo not drawn) [GSK199], the IC50 (PAD4; [8]) is listed as 200 nM.
In the case of `CC(=O)O[C@H]1C(=O)[C@@]2(C)[C@H]([C@H](OC(=O)c3ccccc3)[C@]3(O)C[C@H](OC(=O)[C@H](O)[C@@H](NC(=O)c4ccccc4)c4ccccc4)C(C)=C1C3(C)C)[C@]1(OC(C)=O)CO[C@@H]1C[C@@H]2O` [taxol], the IC50 (PAD4; reversible inhibitors) is listed as “millimolar”.
For `CN(C)c1ccc(O)c2c1C[C@H]1C[C@H]3[C@H](N(C)C)C(O)=C(C(N)=O)C(=O)[C@@]3(O)C(O)=C1C2=O` [minocycline], the IC50 (PAD4; reversible inhibitors) is given as “millimolar”.
In the case of `FC(F)(F)c1cc(SCc2ccc(Cl)c(Cl)c2)nc2cc3c(cc12)OCO3` [Compound 4], the “Inhibition of DNA release (NETs) from PMA-stimulated neutrophils” value (human neutrophils [4]) is reported as “limited ability to block DNA release”, the “Inhibition of GST-PAD4, initial screening” value (GST-PAD4 [1]) is reported as “partially inhibited” and the Ki (GST-PAD4 [1]) is reported as 1000 ± 160 nM. For the same compound, the IC50 (GST-PAD4 [1]) was 1880 ± 260 nM, the “Inhibition of GST-PAD4-mediated citrullination of histone H3 (western blot)” value (GST-PAD4 [6]) was “significantly hampered” and the “Inhibition of HisTag-PPAD” value (HisTag-PPAD) was “no effect”. For the same compound, the “Inhibition of histone H3 citrullination in neutrophils (western blot)” value (human neutrophils [2]) was “visibly limited”, the “Inhibitory potential on GST-PAD4” value (GST-PAD4 [3]) was “retained their inhibitory potential” and the “Inhibitory activity on GST-PAD4 in the presence of serum from RA patients” value (GST-PAD4 [3]; [9]) was “did not diminish further”. For the same compound, the “NET formation visualized by DNA and histone H2A immunostaining” value (human neutrophils [7]) was “blocked the NET formation”.
In the case of `[H]/N=C(/N)N[C@H]1[C@H](O)[C@@H](O)[C@H](O[C@@H]2O[C@@H](C)[C@](O)(C=O)[C@H]2O[C@@H]2O[C@@H](CO)[C@H](O)[C@@H](O)[C@@H]2NC)[C@@H](N/C(N)=N\[H])[C@@H]1O` [streptomycin], the IC50 (PAD4; reversible inhibitors) is given as “millimolar”.
With `Cc1ccc(/C=c2/sc3ncnn3c2=O)o1` [Compound 1] the “Inhibition of GST-PAD4, initial screening” value (GST-PAD4 [1]) was “no inhibition”, the “Inhibitory activity on GST-PAD4 in the presence of RA synovial fluid” value (GST-PAD4 [3]) was “did not show any detectable inhibitory activity” and the “Inhibitory activity on GST-PAD4 in the presence of serum from RA patients” value (GST-PAD4 [3]; [9]) was “did not show any detectable inhibitory activity”. The “Inhibitory activity on GST-PAD4 in the presence of serum from healthy donors” value (GST-PAD4 [3]; [9]) was “did not show any detectable inhibitory activity”.
